The values that follow come from the NIST ThermoML archive (doi:10.1016/j.fluid.2012.03.002).

Numbers after ± are expanded uncertainties.

For data set [1] the following is noted: Crystal; DTA.
Data set [2] can be described thus: Molar enthalpy of transition or fusion. Particulars: Crystal; DSC.

Take `C=CC(=O)Oc1cccc(CCCCCCCCCCCCCCC)c1` [3-pentadecylphenyl acrylate]: the Normal melting temperature in data set [1] was 31.50 ± 0.7 °C. Further, the “Molar enthalpy of transition or fusion” value in data set [2] was 13 ± 0.263 kcal/mol.
